In ChEMBL document CHEMBL1149872, “Glycosides from the root of Iodes cirrhosa” (2008):

Tested on: PC-12
Assay: Neuroprotective activity against rat PC12 cells assessed as glutamate-induced neurotoxicity at 10 uM after 24 hrs by MTT assay
Type: functional

Structure (SMILES): COc1cc([C@@H](O)[C@H](CO)Oc2ccc(CCCO[C@@H]3O[C@H](CO)[C@@H](O)[C@H](O)[C@H]3O)cc2O)ccc1O
- Activity: 36.4%

Structure (SMILES): COc1cc([C@@H](O)[C@H](CO)O[C@@H]2O[C@H](CO)[C@@H](O)[C@H](O)[C@H]2O)ccc1O
- Activity: -46.6%

Structure (SMILES): COc1cc([C@H](O)[C@H](CO)O[C@@H]2O[C@H](CO)[C@@H](O)[C@H](O)[C@H]2O)cc(OC)c1O
- Activity: -28.4%

Structure (SMILES): COc1cc([C@H](O)[C@H](CO)O[C@@H]2O[C@H](CO)[C@@H](O)[C@H](O)[C@H]2O)ccc1O
- Activity: -32.9%

Structure (SMILES): COc1cc([C@H]2OC[C@H]3[C@@H]2CO[C@@H]3c2cc(OC)c(O[C@@H]3O[C@H](CO)[C@@H](O)[C@H](O)[C@H]3O)c(OC)c2)cc(OC)c1O[C@H]1O[C@@H](CO)[C@H](O)[C@@H](O)[C@@H]1O [LIRIODENDRTACHIOSIDE]
- Activity: 20.5%
